# From patent EP0232650B1, “Analogues of hypocalcemic polypeptide compounds preserving the calcium content of the body, their manufacture, their use as medicaments and the compositions thereof” (MILHAUD, Gérard, priority 1985, dated 1989)
# Where a SMILES comes first, the peptide text is derived from it. Bridges are numbered along the chain shown (N, C = ends).
# Assay: Hypocalcemic activity in the fasted male rat (fall in calcemia one hour after intravenous injection, compared with Research Standard B)
# Type: in vivo
# Conditions: male rat 100-120 g, fasted 16 hours, peptide diluted in sodium acetate buffer 0,1 N pH 6 with 0,1 % albumin, versus "Research Standard B"
# Text: Elle est déterminée chez le rat mâle pesant de 100 à 120 g et soumis à un jeûne de 16 heures. L'activité est exprimée en unité MRC à partir de la baisse de la calcémie, mesurée une heure après l'injection intraveineuse de peptide à tester convenablement dilué en tampon acétate de sodium 0,1 N pH 6 et 0,1 % d'albumine, par comparaison avec l'activité du "Research Standard B" convenablement dilué. L'activité biologique du peptide de l'exemple 1 est supérieure à 4000 unités MRC par mg et celle du peptide de l'exemple 2 est supérieure à 4500 unités MRC par mg.
compound,measurement,value
"CC(C)C[C@H](NC(=O)[C@H](CCCCN)NC(=O)CNC(=O)[C@H](CC(C)C)NC(=O)[C@@H](NC(=O)[C@@H]1CSSC[C@H](N)C(=O)N[C@@H](CC(N)=O)C(=O)N[C@@H](CO)C(=O)N[C@@H](CC(C)C)C(=O)N[C@@H](CO)C(=O)N[C@@H]([C@@H](C)O)C(=O)N1)C(C)C)C(=O)N[C@@H](CO)C(=O)N[C@@H](CCC(N)=O)C(=O)N[C@@H](CCC(=O)O)C(=O)N[C@@H](CC(C)C)C(=O)N[C@@H](Cc1c[nH]cn1)C(=O)N[C@@H](CCCCN)C(=O)N[C@@H](CC(C)C)C(=O)N[C@@H](CCC(N)=O)C(=O)N[C@H](C(=O)N[C@@H](Cc1ccc(O)cc1)C(=O)N1CCC[C@H]1C(=O)N[C@@H](CCCNC(=N)N)C(=O)N[C@H](C(=O)N[C@@H](CC(=O)O)C(=O)N[C@H](C(=O)NCC(=O)N[C@@H](C)C(=O)NCC(=O)N[C@H](C(=O)N1CCC[C@H]1C(N)=O)[C@@H](C)O)C(C)C)[C@@H](C)O)[C@@H](C)O [exemple 1, Cys - Asn - Ser - Leu - Sers - Thr - Cys - Val - Leu - Glyio - Lys - Leu - Ser - Gin - Glu1s - Leu - His - Lys - Leu - Gln20- Thr - Tyr - Pro - Arg - Thr25- Asp - Val - Gly - Ala - Gly30 - Thr - Proamide] (H-CNSLSTCVLGKLSQELHKLQTYPRTDVGAGTP-NH2; disulfide 1-7)",activité biologique,> 4000 unités MRC par mg
